# Source: patent publication US20100222311A1, “SOLID FORMULATIONS OF CRYSTALLINE COMPOUNDS” (PURDUE RESEARCH FOUNDATION, priority 2007, published 2010)
# Key:
# [1] = Dissolution test, USP paddle apparatus, UV quantification of active pharmaceutical ingredient release; format: physicochemical; conditions: water, 37° C., paddle 50 rpm; pure drug powder
# Description: Pre-mixed, dry powder materials (10% griseofulvin in α-mannitiol or 50% griseofulvin in α-mannitiol) were extruded using a production scale extruder (Leistritz Mikro GL 27-28D, Leistritz, Nuermber, Germany). […] The shear rate was varied on two levels during extrusion by varying the barrel length, the number of die holes and screw configuration. The extrudates were characterized by a dissolution test in accordance to the preliminary experiments (see FIG. 10). The dissolution tests were performed in a paddle apparatus (VK7030, Varian, Cary, N.C., USA) in accordance with the USP at 50 rpm. Six samples of each batch were tested in water at 37° C. as dissolution media. For the dissolution test, the extrudates were cut in small pieces of approximately 2 mg. The active pharmaceutical ingredient release was quantified with a UV-photometer (DU 640, Beckman, Fellerton, USA; Cary 300, Varian, Victoria, Australia) using different wavelengths (griseofulvin 296 nm, phenytoin 220 nm and spironolactone 243 nm) for 120 min using a cuvette with a 50 mm path length.
# [2] = X-Ray diffraction, crystallinity of extrudates; format: physicochemical; conditions: excipient extruded alone
# Description: The crystal structure was characterized by X-Ray diffraction (LabX XRD6000, Shimadzu, Columbia, Md., USA). […] The powdered samples were placed in aluminum holders and measured in the reflection mode from 10 to 40° 2θ. The scanning rate was 5°/min using a sampling pitch of 0.02°. Each sample was measured in duplicate.
Structure (SMILES),"crystallization after extrusion, in words [2]",other results
COC1=CC(=O)C[C@@H](C)[C@]12Oc1c(Cl)c(OC)cc(OC)c1C2=O [griseofulvin],,time to attain 50% release [1]: six
"OC[C@@H](O)[C@@H](O)[C@H](O)[C@@H](O)CO [Sorbitol, sorbitol]",still predominantly amorphous after 24 h,
"C[C@H](O)C(=O)O [L-(+)-lactic acid, L-(+)-Lactic acid]",,time within which crystallization was completed [2]: ≤ 24 h
OC[C@@H](O)[C@@H](O)[C@@H](O)CO [adonitol],rapid crystallization,
